Blank lines part the entries; values can stand above or below the compound they belong to.
Legend:
[1] = Inhibition of Tel-fused TRKB (unknown origin) overexpressed in mouse BA/F3 cells assessed as inhibition of cell proliferation after 48 hrs by luciferase reporter gene assay in absence of recombinant mouse IL3
[2] = Inhibition of Tel-fused TRKA (unknown origin) overexpressed in mouse BA/F3 cells assessed as inhibition of cell proliferation after 48 hrs by luciferase reporter gene assay in absence of recombinant mouse IL3
[3] = Inhibition of TPM3-fused TRKA (unknown origin) expressed in human KM12 cells assessed as inhibition of cell proliferation after 48 hrs by luciferase reporter gene assay
[4] = Inhibition of Tel-fused ALK (unknown origin) expressed in mouse BA/F3 cells after 48 hrs by luciferase reporter gene assay in absence of recombinant mouse IL3
[5] = Inhibition of Tel-fused KIT (unknown origin) expressed in mouse BA/F3 cells after 48 hrs by luciferase reporter gene assay in absence of recombinant mouse IL3
[6] = Inhibition of Tel-fused LYN (unknown origin) expressed in mouse BA/F3 cells after 48 hrs by luciferase reporter gene assay in absence of recombinant mouse IL3
[7] = Inhibition of Tel-fused FGFR4 (unknown origin) expressed in mouse BA/F3 cells after 48 hrs by luciferase reporter gene assay in absence of recombinant mouse IL3
[8] = Inhibition of Tel-fused ZAP70 (unknown origin) expressed in mouse BA/F3 cells after 48 hrs by luciferase reporter gene assay in absence of recombinant mouse IL3
[9] = Inhibition of Tel-fused SYK (unknown origin) expressed in mouse BA/F3 cells after 48 hrs by luciferase reporter gene assay in absence of recombinant mouse IL3
[10] = Inhibition of Tel-fused FLT3 (unknown origin) expressed in mouse BA/F3 cells after 48 hrs by luciferase reporter gene assay in absence of recombinant mouse IL3
[11] = Inhibition of NMP-fused ALK (unknown origin) expressed in mouse BA/F3 cells after 48 hrs by luciferase reporter gene assay in absence of recombinant mouse IL3
[12] = Inhibition of Tel-fused MET (unknown origin) expressed in mouse BA/F3 cells after 48 hrs by luciferase reporter gene assay in absence of recombinant mouse IL3
[13] = Inhibition of Tel-fused LCK (unknown origin) expressed in mouse BA/F3 cells after 48 hrs by luciferase reporter gene assay in absence of recombinant mouse IL3
[14] = Inhibition of Tel-fused BRAF (unknown origin) expressed in mouse BA/F3 cells after 48 hrs by luciferase reporter gene assay in absence of recombinant mouse IL3
[15] = Inhibition of BCR-fused ABL (unknown origin) expressed in mouse BA/F3 cells after 48 hrs by luciferase reporter gene assay in absence of recombinant mouse IL3
[16] = Inhibition of Tel-fused ROS (unknown origin) expressed in mouse BA/F3 cells after 48 hrs by luciferase reporter gene assay in absence of recombinant mouse IL3
[17] = Inhibition of NGF-activated full length TRKA (unknown origin) expressed in mouse BA/F3 cells assessed as inhibition of cell proliferation
[18] = Inhibition of Tel-fused TRKC (unknown origin) overexpressed in mouse BA/F3 cells assessed as inhibition of cell proliferation after 48 hrs by luciferase reporter gene assay in absence of recombinant mouse IL3
[19] = Inhibition of Tel-fused TIE1 (unknown origin) expressed in mouse BA/F3 cells after 48 hrs by luciferase reporter gene assay in absence of recombinant mouse IL3
[20] = Inhibition of Tel-fused TYRO3 (unknown origin) expressed in mouse BA/F3 cells after 48 hrs by luciferase reporter gene assay in absence of recombinant mouse IL3
[21] = Inhibition of Tel-fused RET (unknown origin) expressed in mouse BA/F3 cells after 48 hrs by luciferase reporter gene assay in absence of recombinant mouse IL3
[22] = Inhibition of Tel-fused PDGFRbeta (unknown origin) expressed in mouse BA/F3 cells after 48 hrs by luciferase reporter gene assay in absence of recombinant mouse IL3
[23] = Inhibition of Tel-fused INSR (unknown origin) expressed in mouse BA/F3 cells after 48 hrs by luciferase reporter gene assay in absence of recombinant mouse IL3
[24] = Inhibition of Tel-fused SRC (unknown origin) expressed in mouse BA/F3 cells after 48 hrs by luciferase reporter gene assay in absence of recombinant mouse IL3
[25] = Inhibition of Tel-fused FMS (unknown origin) expressed in mouse BA/F3 cells after 48 hrs by luciferase reporter gene assay in absence of recombinant mouse IL3
[26] = Inhibition of Tel-fused KDR (unknown origin) expressed in mouse BA/F3 cells after 48 hrs by luciferase reporter gene assay in absence of recombinant mouse IL3
[27] = Inhibition of Tel-fused IGF1R (unknown origin) expressed in mouse BA/F3 cells after 48 hrs by luciferase reporter gene assay in absence of recombinant mouse IL3
[28] = Inhibition of Tel-fused MER (unknown origin) expressed in mouse BA/F3 cells after 48 hrs by luciferase reporter gene assay in absence of recombinant mouse IL3
[29] = Inhibition of Tel-fused RON (unknown origin) expressed in mouse BA/F3 cells after 48 hrs by luciferase reporter gene assay in absence of recombinant mouse IL3
[30] = Inhibition of Tel-fused FLT1 (unknown origin) expressed in mouse BA/F3 cells after 48 hrs by luciferase reporter gene assay in absence of recombinant mouse IL3
[31] = Inhibition of Tel-fused FGFR3 (unknown origin) expressed in mouse BA/F3 cells after 48 hrs by luciferase reporter gene assay in absence of recombinant mouse IL3
[32] = Inhibition of Tel-fused BMX (unknown origin) expressed in mouse BA/F3 cells after 48 hrs by luciferase reporter gene assay in absence of recombinant mouse IL3
[33] = Inhibition of Tel-fused FGR (unknown origin) expressed in mouse BA/F3 cells after 48 hrs by luciferase reporter gene assay in absence of recombinant mouse IL3

IC50 [1]: 11 nM
Compound: N#Cc1ccc(-c2cnc3ccc(N4CCC[C@@H]4c4cccc(F)c4)nn23)cc1

IC50 [2]: 170 nM
IC50 [1]: 120 nM
Compound: COc1ccccc1CNc1ccc2ncc(-c3ccc(C#N)cc3)n2n1

IC50 [1]: 50 nM
Compound: N#Cc1ccc(-c2cnc3ccc(N4CCCCC4c4cccc(F)c4)nn23)cc1 (centres undefined)

IC50 [2]: 76 nM
IC50 [1]: 27 nM
Compound: OCc1ccc(-c2cnc3ccc(NCc4cccc(F)c4)nn23)cc1

IC50 [1]: 29 nM
Compound: N#Cc1ccc(-c2cnc3ccc(N4CCCC4c4cccc(F)c4)nn23)cc1 (centres undefined)

IC50 [3]: 1 nM
IC50 [4]: 2200 nM
IC50 [5]: 790 nM
IC50 [6]: 3400 nM
IC50 [7]: 5300 nM
IC50 [8]: 5200 nM
IC50 [9]: 4400 nM
IC50 [10]: 3300 nM
IC50 [11]: 1200 nM
IC50 [12]: 4300 nM
IC50 [13]: 3000 nM
IC50 [14]: 6200 nM
IC50 [15]: 2400 nM
IC50 [16]: 60 nM
IC50 [17]: 1 nM
IC50 [18]: < 1 nM
IC50 [19]: 4300 nM
IC50 [20]: 5200 nM
IC50 [21]: 3700 nM
IC50 [22]: 2200 nM
IC50 [2]: 1 nM
IC50 [23]: 5300 nM
IC50 [24]: 2500 nM
IC50 [1]: 1 nM
IC50 [25]: 2500 nM
IC50 [26]: 1000 nM
IC50 [27]: 5100 nM
Compound: O=C(O)CN1CCN(c2cc(-c3cnc4ccc(N5CCC[C@@H]5c5cccc(F)c5)nn34)ccn2)CC1

IC50 [3]: 10 nM
IC50 [4]: 3900 nM
IC50 [5]: 7000 nM
IC50 [6]: 4900 nM
IC50 [7]: 4400 nM
IC50 [28]: 5100 nM
IC50 [9]: 7900 nM
IC50 [10]: 4300 nM
IC50 [11]: 3000 nM
IC50 [29]: 4800 nM
IC50 [13]: 5200 nM
IC50 [15]: 5200 nM
IC50 [16]: 210 nM
IC50 [17]: 3 nM
IC50 [18]: 2 nM
IC50 [20]: 5000 nM
IC50 [22]: 4600 nM
IC50 [2]: 4 nM
IC50 [30]: 5300 nM
IC50 [24]: 4600 nM
IC50 [31]: 5000 nM
IC50 [1]: 4 nM
IC50 [25]: 5300 nM
IC50 [26]: 5000 nM
IC50 [32]: 4300 nM
Compound: OC1CCN(c2cc(-c3cnc4ccc(N5CCC[C@@H]5c5cccc(F)c5)nn34)ccn2)CC1

IC50 [2]: 520 nM
IC50 [1]: 130 nM
Compound: CN(Cc1ccccc1)c1ccc2ncc(-c3ccc(C#N)cc3)n2n1

IC50 [4]: 3100 nM
IC50 [5]: 2200 nM
IC50 [7]: 5900 nM
IC50 [28]: 5400 nM
IC50 [8]: 6400 nM
IC50 [9]: 4000 nM
IC50 [10]: 720 nM
IC50 [29]: 6100 nM
IC50 [12]: 5100 nM
IC50 [13]: 2000 nM
IC50 [14]: 2500 nM
IC50 [15]: 3800 nM
IC50 [16]: 300 nM
IC50 [18]: 100 nM
IC50 [33]: 6400 nM
IC50 [19]: 5500 nM
IC50 [22]: 2000 nM
IC50 [2]: 850 nM
IC50 [23]: 8600 nM
IC50 [30]: 3000 nM
IC50 [31]: 3900 nM
IC50 [1]: 270 nM
IC50 [25]: 3400 nM
IC50 [26]: 4100 nM
IC50 [32]: 9700 nM
IC50 [27]: 4000 nM
Compound: N#Cc1ccc(-c2cnc3ccc(NCc4ccccc4)nn23)cc1

IC50 [1]: 1970 nM
Compound: N#Cc1ccc(-c2cnc3ccc(N4CCC[C@H]4c4cccc(F)c4)nn23)cc1

IC50 [2]: 50 nM
IC50 [1]: 21 nM
Compound: N#Cc1ccc(-c2cnc3ccc(NCc4cccc(F)c4)nn23)cc1

IC50 [2]: 740 nM
IC50 [1]: 200 nM
Compound: N#Cc1cccc(-c2cnc3ccc(NCc4ccccc4)nn23)c1

IC50 [2]: 6 nM
IC50 [1]: 7 nM
Compound: O=C(Nc1ccc(-c2cnc3ccc(NCc4cccc(F)c4)nn23)cc1)C1CCOCC1

IC50 [2]: 27 nM
IC50 [1]: 13 nM
Compound: NS(=O)(=O)c1ccc(-c2cnc3ccc(NCc4cccc(F)c4)nn23)cc1

IC50 [5]: 5500 nM
IC50 [16]: 600 nM
IC50 [18]: 1 nM
IC50 [33]: 8700 nM
IC50 [1]: 1 nM
IC50 [25]: > 10000 nM
IC50 [32]: > 10000 nM
Compound: Fc1cccc([C@H]2CCCN2c2ccc3ncc(-c4ccccn4)n3n2)c1

IC50 [1]: 4 nM
Compound: OC1CCN(c2cccc(-c3cnc4ccc(N5CCC[C@@H]5c5cccc(F)c5)nn34)n2)CC1

Reference: BindingDB's records for doi:10.1021/acsmedchemlett.5b00050 (Genomics Institute of The Novartis Research Foundation, 2015)
